This note sets out measurements from PubChem BioAssay (NCI).

Test systems include A549 NSCLC; DU-145 prostate; HCT-15 colon; HOP-62 NSCLC; HT29 colon; MALME-3M melanoma; SK-MEL-2 melanoma; SN12C renal; SNB-75 CNS; SR leukemia.
Holding throughout (assay): NCI anticancer screen, dose series, 48 h

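In this assay, cells in 96-well plates receive the compound at five concentrations for 48 hours. Endpoints are linearly interpolated between the surrounding concentrations. GI50 is the concentration that inhibits growth by half. TGI is the concentration that stops growth completely.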

On to `COC(=O)C(C)NC(=O)c1ccccc1I(OS(=O)(=O)C(F)(F)F)c1ccccc1` (centres undefined), for which the GI50 is 30.6 µM in the assay with A549 NSCLC; 25.6 µM with DU-145 prostate; 16 µM in the assay with HCT-15 colon; 29.5 µM with HOP-62 NSCLC; 23.1 µM with HT29 colon; 14 µM in the assay on MALME-3M melanoma. For the same compound, the GI50 with SK-MEL-2 melanoma was 41.6 µM; with SN12C renal, 15.4 µM; with SNB-75 CNS, greater than 49 µM. The TGI with A549 NSCLC was greater than 75.2 µM; in the assay with DU-145 prostate, greater than 71.1 µM; in the assay on HCT-15 colon it was 41.7 µM; with HOP-62 NSCLC, 90.1 µM; with HT29 colon it was greater than 61.4 µM; in the assay with MALME-3M melanoma, 29.5 µM. The results for the TGI with SK-MEL-2 melanoma, in the assay on SN12C renal and in the assay with SNB-75 CNS were greater than 100 µM, 32.4 µM and greater than 87.8 µM, respectively.
For `Cc1ccc([C@]2(C)CC[C@H](C)/C2=C\Br)c(O)c1`, the GI50 in the assay on A549 NSCLC was 5.85 µM; in the assay with DU-145 prostate, 4.1 µM; in the assay on HCT-15 colon it was 4.99 µM; with HOP-62 NSCLC, 4.22 µM; in the assay on HT29 colon, 2.52 µM; in the assay on MALME-3M melanoma, 3.88 µM. In addition, the figures for the GI50 with SK-MEL-2 melanoma, in the assay with SN12C renal and with SR leukemia were 2.82 µM, 4.05 µM and 2.87 µM, respectively. Also, the TGI was determined as 19 µM in the assay with A549 NSCLC; 17.2 µM in the assay on DU-145 prostate; 33.7 µM in the assay with HCT-15 colon; 15.7 µM in the assay on HOP-62 NSCLC; 6.65 µM in the assay on HT29 colon; 14.1 µM in the assay with MALME-3M melanoma. For the same compound, the TGI in the assay on SK-MEL-2 melanoma worked out at 17.9 µM; in the assay with SN12C renal, 15.1 µM; with SR leukemia it was 11.5 µM.
For the compound `Oc1ccc(N=Nc2ccccn2)c(O)c1`, the GI50 in the assay with A549 NSCLC is 2.94 µM; in the assay with DU-145 prostate it was 1.55 µM; in the assay on HCT-15 colon, 0.423 µM; in the assay with HOP-62 NSCLC, 0.832 µM; in the assay with HT29 colon, 0.434 µM; in the assay with MALME-3M melanoma it was 4.86 µM. Further, the figures for the GI50 with SK-MEL-2 melanoma, in the assay with SN12C renal and in the assay on SR leukemia were 7.44 µM, 1.91 µM and 0.723 µM, respectively. Besides, the TGI in the assay on A549 NSCLC, in the assay with DU-145 prostate, with HCT-15 colon, in the assay with HOP-62 NSCLC, with HT29 colon and in the assay on MALME-3M melanoma was greater than 100 µM each time. In addition, the TGI in the assay on SK-MEL-2 melanoma, with SN12C renal and in the assay with SR leukemia was greater than 100 µM throughout.
Consider `Oc1ccc(Cc2cc(Cl)cc(Cl)c2O)cc1Cl`, for which the TGI in the assay with A549 NSCLC was determined as 41.3 µM; in the assay on DU-145 prostate it was 24.4 µM; with HCT-15 colon it was 35.2 µM; with HOP-62 NSCLC, 37.3 µM; in the assay with HT29 colon it was 43.9 µM; in the assay on MALME-3M melanoma, 30.9 µM. The results for the TGI in the assay with SK-MEL-2 melanoma, with SN12C renal and in the assay on SR leukemia were 29.7 µM, 30.2 µM and 47.2 µM, respectively.
With `NC(=S)NN=C1CSSC1`, the GI50 with A549 NSCLC was 2.26 µM; in the assay on DU-145 prostate, 4.12 µM; with HCT-15 colon, 1.7 µM; in the assay with HOP-62 NSCLC it was 2.04 µM; in the assay with HT29 colon it was 2.31 µM; in the assay on MALME-3M melanoma, 3.67 µM. The figures for the GI50 in the assay with SK-MEL-2 melanoma, in the assay on SN12C renal and with SR leukemia were 3.23 µM, 4.67 µM and 2.79 µM, respectively. Moreover, the TGI amounted to 12.1 µM with A549 NSCLC; 16.2 µM in the assay on DU-145 prostate; 4.75 µM in the assay with HCT-15 colon; 12.2 µM in the assay with HOP-62 NSCLC; 8 µM in the assay with HT29 colon; 28.8 µM in the assay on MALME-3M melanoma. Moreover, the TGI in the assay on SK-MEL-2 melanoma is 18.9 µM; in the assay with SN12C renal, greater than 100 µM; with SR leukemia it was greater than 100 µM.
Take `CC1(C)C(=O)/C(=C\c2cccnc2)C[C@]2(C)[C@H]3CC[C@@H]4[C@@H](C(=O)/C=C/c5ccncc5)CC[C@@]4(C)[C@]3(C)CC[C@@H]12`: the GI50 is 2.62 µM in the assay on A549 NSCLC; 1.68 µM in the assay with DU-145 prostate; 1.71 µM in the assay with HCT-15 colon; 1.9 µM with HOP-62 NSCLC; 2.41 µM in the assay on HT29 colon; 1.78 µM in the assay with MALME-3M melanoma. The GI50 in the assay on SK-MEL-2 melanoma was 1.93 µM; in the assay with SN12C renal, 2.47 µM; in the assay on SR leukemia, 1.68 µM. The TGI with A549 NSCLC was found to be 10.7 µM; in the assay on DU-145 prostate, 3.24 µM; in the assay on HCT-15 colon, 4.85 µM; in the assay with HOP-62 NSCLC, 3.94 µM; with HT29 colon, 8.64 µM; in the assay with MALME-3M melanoma it was 3.43 µM. Moreover, the TGI was determined as 4.38 µM in the assay on SK-MEL-2 melanoma, 7.85 µM in the assay with SN12C renal and 9.81 µM in the assay with SR leukemia.
In the case of `Cc1c(Cl)cccc1NC(=O)c1sc2nc3c(cc2c1N)CCCCC3`, the GI50 in the assay with A549 NSCLC is 0.725 µM; in the assay with DU-145 prostate, 0.598 µM; in the assay on HCT-15 colon, 0.195 µM; in the assay on HOP-62 NSCLC, 0.411 µM; in the assay on HT29 colon, 0.186 µM; with MALME-3M melanoma it was 0.357 µM. For the same compound, the GI50 was 0.255 µM with SK-MEL-2 melanoma, 1.44 µM with SN12C renal and 0.174 µM with SR leukemia. The TGI with A549 NSCLC is greater than 50 µM; in the assay with DU-145 prostate, 17.3 µM; in the assay on HCT-15 colon, greater than 50 µM; in the assay with HOP-62 NSCLC, 45.3 µM; in the assay on HT29 colon, 5.02 µM; in the assay on MALME-3M melanoma, 37.7 µM. In addition, the TGI was 25.2 µM with SK-MEL-2 melanoma, greater than 50 µM with SN12C renal and greater than 50 µM with SR leukemia.
Consider `Cc1c([N+](=O)[O-])oc2ccc3ccccc3c12`, for which the TGI in the assay with A549 NSCLC was greater than 100 µM; in the assay on DU-145 prostate it was 83.7 µM; in the assay on HCT-15 colon it was greater than 100 µM; in the assay with HOP-62 NSCLC, greater than 100 µM; in the assay with HT29 colon it was greater than 100 µM; in the assay with SK-MEL-2 melanoma it was greater than 100 µM. The TGI in the assay with SN12C renal, in the assay with SNB-75 CNS and in the assay with SR leukemia was greater than 100 µM each time.
As to `COc1cc(-c2csc(NC(=O)Nc3cc(Cl)cc(Cl)c3)n2)cc(OC)c1OC`, the GI50 with A549 NSCLC was 1.72 µM; with DU-145 prostate it was 1.77 µM; in the assay with HCT-15 colon, 2.33 µM; in the assay on HT29 colon it was 2.02 µM; in the assay on MALME-3M melanoma it was 1.75 µM; in the assay with SK-MEL-2 melanoma it was 2.61 µM. The GI50 in the assay with SN12C renal was 1.78 µM; in the assay with SNB-75 CNS, 1.49 µM; in the assay with SR leukemia, 2 µM. For the same compound, the TGI came to 3.61 µM in the assay on A549 NSCLC; 3.35 µM with DU-145 prostate; 6.97 µM in the assay on HCT-15 colon; 4.41 µM in the assay with HT29 colon; 3.25 µM with MALME-3M melanoma; 7.97 µM in the assay with SK-MEL-2 melanoma. Besides, the values for the TGI with SN12C renal, in the assay on SNB-75 CNS and in the assay on SR leukemia were 3.28 µM, 2.88 µM and 6.61 µM, respectively.
